US20250144030A1, “OSMOTIC PUMP CONTROLLED-RELEASE TABLET OF INSOLUBLE DRUG AND PREPARATION METHOD THEREFOR” (BEIJING WEHAND-BIO PHARMACEUTICAL CO., LTD, priority 2021, published 2025)
Where a name gives a salt, the structure may show the parent alone. Read-outs that look alike come from different tables or passages of the source.

Experiment: Determination of solubility of Nic drug and solid dispersions
Format: physicochemical
Conditions: for solubility at 2 h: 37 °C, thermodynamic from solid
Experimental: After the drug was dissolved, an equivalent dose of the solid dispersion powder was further added, and oscillated for 2 h. The above operations were repeated until an insoluble solid occurred in the solution.

solubility at 2 h (saturated citric acid solution, aqueous buffer, saturated citric acid solution, read-out: Solubility of Saturated Citric Acid Solution mg/ml (37° C.)) [mg/mL]	solubility at 2 h (water, water, water, read-out: Solubility in Water mg/ml (37° C.)) [mg/mL]	Solubility of Saturated Citric Acid Solution mg/ml (37° C.) (saturated citric acid solution, hydrochloride) [mg/mL]	Solubility in Water mg/ml (37° C.) (water, hydrochloride) [mg/mL]	Structure (SMILES)
46	7.2			COC(=O)C1=C(C)NC(C)=C(C(=O)OCCN(C)Cc2ccccc2)C1c1cccc([N+](=O)[O-])c1 (stereo not drawn) [α-Form Nic, nicardipine hydrochloride]
		50	11	COC(=O)C1=C(C)NC(C)=C(C(=O)OCCN(C)Cc2ccccc2)C1c1cccc([N+](=O)[O-])c1 (stereo not drawn) [β-Form Nic, nicardipine hydrochloride]
